Measured values published in patent US10752647B2, “N-phosphonoxymethyl prodrugs of hydroxyalkyl thiadiazole derivatives” (DAIICHI SANKYO COMPANY, LIMITED, priority 2017, dated 2020).

Assays:
[1] = Conversion efficiency / PK profile after IV dose in dogs; type: in vivo; settings: Dog, plasma, parent compound IV 1 mg/kg; read-out: Parent compound AUCinf
Protocol: (§1) Method of Testing Conversion Efficiency Determination of conversion efficiency of Compound No. 1 and Compound No. 2 was conducted in rodents (mice and rats) and non-rodents (monkeys and dogs). Animals were divided in two groups with two animals in each group. One group received an intravenous (IV) dose of prodrug and the other group received an IV dose of parent compound. The dose of prodrug was taken as molar equivalent dose of parent compound. Serial blood sampling was carried out at 0.083, 0.33, 1, 2, 4, 8 and 24 h post IV dose from both the animal groups. Blood samples were centrifuged to harvest plasma. Plasma samples were stored at −80° C. until analysis. Plasma samples of prodrug administered animals were simultaneously analyzed for both analytes (prodrug and parent compound) using LC-MS/MS. Area under the curve (AUC) of plasma concentrations versus time profiles were calculated in WinNonlin software and percentage conversion efficiency was determined using the formula: Percentage conversion efficiency=(AUCiv of parent compound (from prodrug administered samples)×100/(AUCiv of parent compound (from parent compound administered samples). PK profile of Compounds No. 1 and No. 2 in rats, dogs and monkeys are depicted in Table 5 and 6, respectively (also shown in FIGS. 1 and 2).

[2] = Conversion efficiency / PK profile after IV dose in monkeys; type: in vivo; settings: Monkey, plasma, parent compound IV 1 mg/kg; read-out: Parent compound AUCinf
Protocol: as §1

[3] = Conversion efficiency / PK profile after IV dose in rats (Compounds No. 1 and No. 2); type: in vivo; settings: Rat, plasma, parent compound IV 12.5 mg/kg; read-out: Parent compound AUCinf
Protocol: as §1

[4] = Solubility of parent compounds and prodrugs in phosphate buffer; type: physicochemical; settings: aqueous buffer, thermodynamic from solid; prodrug, phosphate buffer adjusted with NaOH, 25° C., more than 4 weeks, pH 7.2

SMILES	AUC(0-inf) [1] [ng·h/mL]	AUC(0-inf) [2] [ng·h/mL]	AUC(0-inf) [3] [ng·h/mL]	solubility [4] [mg/mL]
CCc1[nH]c(C(=O)N[C@@H]2CCN(c3nnc(C(C)(C)O)s3)C[C@@H]2OC)nc1Cl [Parent compound of Compound No. 1, 4-chloro-5-ethyl-N-{(3S,4R)-1-[5-(1-hydroxy-1-methylethyl)-1,3,4-thiadiazol-2-yl]-3-methoxypiperidin-4-yl}-1H-imidazole-2-carboxamide]	29400	6250	17700	
CCc1c(Cl)nc(C(=O)N[C@@H]2CCN(c3nnc([C@@H](O)CO)s3)C[C@@H]2OC)n1COP(=O)(O)O [Compound No. 9, [4-Chloro-2-({(3S,4R)-1-[5-(1,2-dihydroxyethyl)-1,3,4-thiadiazol-2-yl]-3-methoxypiperidin-4-yl}carbamoyl)-5-ethyl-1H-imidazol-1-yl]methyl dihydrogen phosphate]				102
